# Source: US20180002288A1, “USE OF PICOLINAMIDES AS FUNGICIDES” (DOW AGROSCIENCES LLC, priority 2014, published 2018)
# Read-outs that look alike come from different tables or passages of the source.
# Legend:
# Cercospora beticola = assay: Leaf Spot of Sugar Beets fungicidal activity (CERCBE); format: in vivo; conditions: 24 h, sugar beet, high volume, 1 Day Protectant, read-out: CERCBE % Control rating
# Experimental: All fungicides were evaluated using the aforementioned method for their activity vs. all target diseases, unless stated otherwise. Wheat leaf blotch and brown rust activity were also evaluated using track spray applications, in which case the fungicides were formulated as EC formulations, containing 0.1% Trycol 5941 in the spray solutions. Wheat plants (variety Yuma) were grown from seed in a greenhouse in 50% mineral soil/50% soil-less Metro mix until the first leaf was fully emerged, with 7-10 seedlings per pot. These plants were inoculated with an aqueous spore suspension of Zymoseptoria tritici either prior to or after fungicide treatments. After inoculation the plants were kept in 100% relative humidity (one day in a dark dew chamber followed by two to three days in a lighted dew chamber at 20° C.) to permit spores to germinate and infect the leaf. The plants were then transferred to a greenhouse set at 20° C. for disease to develop. When disease symptoms were fully expressed on the 1st leaves of untreated plants, infection levels were assessed on a scale of 0 to 100 percent disease severity. Percent disease control was calculated using the ratio of disease severity on treated plants relative to untreated plants. Sugar beet plants (variety HH88) were grown in soil-less Metro mix and trimmed regularly to maintain a uniform plant size prior to test. Plants were inoculated with a spore suspension 24 hr after fungicide treatments. Inoculated plants were kept in a dew chamber at 22° C. for 48 hr then incubated in a greenhouse set at 24° C. under a clear plastic hood with bottom ventilation until disease symptoms were fully expressed. Fungicide formulation, application and disease assessment on the sprayed leaves followed the procedures as described in the Example A.
# Puccinia triticina = assay: Wheat Brown Rust fungicidal activity (PUCCRT); format: in vivo; conditions: Low Volume Cereal Activity at 121.5 g/Ha
# Zymoseptoria tritici = assay: Leaf Blotch of Wheat fungicidal activity (SEPTTR); format: in vivo; conditions: Low Volume Cereal Activity at 121.5 g/Ha
# Alternaria solani = assay: Tomato Early Blight fungicidal activity (ALTESO); format: in vivo; conditions: 24 h, high volume, 1 Day Protectant, read-out: ALTESO % Control rating
# Experimental: All fungicides were evaluated using the aforementioned method for their activity vs. all target diseases, unless stated otherwise. Wheat leaf blotch and brown rust activity were also evaluated using track spray applications, in which case the fungicides were formulated as EC formulations, containing 0.1% Trycol 5941 in the spray solutions. Wheat plants (variety Yuma) were grown from seed in a greenhouse in 50% mineral soil/50% soil-less Metro mix until the first leaf was fully emerged, with 7-10 seedlings per pot. These plants were inoculated with an aqueous spore suspension of Zymoseptoria tritici either prior to or after fungicide treatments. After inoculation the plants were kept in 100% relative humidity (one day in a dark dew chamber followed by two to three days in a lighted dew chamber at 20° C.) to permit spores to germinate and infect the leaf. The plants were then transferred to a greenhouse set at 20° C. for disease to develop. When disease symptoms were fully expressed on the 1st leaves of untreated plants, infection levels were assessed on a scale of 0 to 100 percent disease severity. Percent disease control was calculated using the ratio of disease severity on treated plants relative to untreated plants. Tomato plants (variety Outdoor Girl) were propagated in soil-less Metro mix, with each pot having one plant, and used when 12 to 14 days old. Test plants were inoculated with an aqueous spore suspension of Alternaria solani 24 hr after fungicide treatments. After inoculation the plants were kept in a dew room at 22° C. with 100% relative humidity for 48 hr to permit spores to germinate and infect the leaf. The plants were then transferred to a growth room at 22° C. for disease to develop. Fungicide formulation, application and disease assessment on the sprayed leaves followed the procedures as described in the Example A.
# Phakopsora pachyrhizi = assay: Asian Soybean Rust fungicidal activity (PHAKPA); conditions: for pest or weed control at 25 ppm: Phakopsora pachyrhizi, in Glycine max
# Venturia inaequalis = assay: Apple Scab fungicidal activity (VENTIN); format: in vivo; conditions: 24 h, high volume, 1 Day Protectant, read-out: VENTIN % Control rating
# Experimental: All fungicides were evaluated using the aforementioned method for their activity vs. all target diseases, unless stated otherwise. Wheat leaf blotch and brown rust activity were also evaluated using track spray applications, in which case the fungicides were formulated as EC formulations, containing 0.1% Trycol 5941 in the spray solutions. Wheat plants (variety Yuma) were grown from seed in a greenhouse in 50% mineral soil/50% soil-less Metro mix until the first leaf was fully emerged, with 7-10 seedlings per pot. These plants were inoculated with an aqueous spore suspension of Zymoseptoria tritici either prior to or after fungicide treatments. After inoculation the plants were kept in 100% relative humidity (one day in a dark dew chamber followed by two to three days in a lighted dew chamber at 20° C.) to permit spores to germinate and infect the leaf. The plants were then transferred to a greenhouse set at 20° C. for disease to develop. When disease symptoms were fully expressed on the 1st leaves of untreated plants, infection levels were assessed on a scale of 0 to 100 percent disease severity. Percent disease control was calculated using the ratio of disease severity on treated plants relative to untreated plants. […] Seedlings with two expanding young leaves at the top (older leaves at bottom of the plants were trimmed) were used in the test. Plants were inoculated with a spore suspension of Venturia inaequalis 24 hr after fungicide treatment and kept in a 22° C. dew chamber with 100% relative humidity for 48 hr, and then moved to a greenhouse set at 20° C. for disease to develop. Fungicide formulation, application and disease assessment on the sprayed leaves followed the procedures as described in the Example A.
# [1] = 24 h, 1 Day Protectant, read-out: PUCCRT 1DP (Wheat Brown Rust, 1 Day Protectant)
# [2] = 72 h, 3 Day Curative, read-out: PUCCRT 3DC (Wheat Brown Rust, 3 Day Curative)
# [3] = 24 h, 1 Day Protectant, read-out: SEPTTR 1DP (Wheat Leaf Blotch, 1 Day Protectant)
# [4] = 72 h, 3 Day Curative, read-out: SEPTTR 3DC (Wheat Leaf Blotch, 3 Day Curative)
# [5] = 24 h, read-out: PHAKPA 1DP % Control rating, soybean, high volume, 25 ppm, 1 Day Protectant
# [6] = 72 h, read-out: PHAKPA 3DC % Control rating, soybean, high volume, 25 ppm, 3 Day Curative
Structure (SMILES),pest or weed control at 100 ppm (Cercospora beticola) [%],pest or weed control at 121.5 g/ha (Puccinia triticina; [1]) [%],pest or weed control at 121.5 g/ha (Puccinia triticina; [2]) [%],pest or weed control at 121.5 g/ha (Zymoseptoria tritici; [3]) [%],pest or weed control at 121.5 g/ha (Zymoseptoria tritici; [4]) [%],pest or weed control at 100 ppm (Alternaria solani) [%],pest or weed control at 25 ppm (Phakopsora pachyrhizi; [5]) [%],pest or weed control at 25 ppm (Phakopsora pachyrhizi; [6]) [%],pest or weed control at 100 ppm (Venturia inaequalis) [%],"PHAKPA 3DC % Control rating (Phakopsora pachyrhizi; soybean, high volume, 25 ppm, 3 Day Curative)"
COc1ccnc(C(=O)N[C@@H](C)C(=O)O[C@H](C)[C@@H](Oc2ccccc2)c2ccccc2)c1OCOC(C)=O [Example 185],< 80,> 80,> 80,> 80,> 80,< 80,< 80,< 0,< 80,
COc1ccnc(C(=O)N[C@H](C)C(=O)O[C@H](C)[C@@H](Oc2ccccc2)c2ccccc2)c1OCOC(C)=O [Example 186],< 80,< 0,< 0,< 80,< 80,< 80,< 0,< 0,< 80,
COc1ccnc(C(=O)N[C@@H](C)C(=O)O[C@@H](C)[C@H](Oc2ccccc2)c2ccc(F)cc2OC(C)=O)c1OC(C)=O [Example 267],,< 80,< 0,> 80,< 80,,< 80,< 80,,
COc1ccnc(C(=O)N[C@@H](C)C(=O)O[C@@H](C)[C@H](Oc2ccccc2)c2ccc(F)cc2OCC2CC2)c1OC(C)=O [Example 272],,> 80,> 80,> 80,> 80,,< 80,< 0,,
COc1cc(F)ccc1[C@H](OC1CC1)[C@H](C)OC(=O)[C@H](C)NC(=O)c1nccc(OC)c1OC(C)=O [Example 298],,< 80,> 80,< 80,< 0,,> 80,< 80,,
COc1cc(F)ccc1[C@@H](Oc1ccccc1)[C@H](C)OC(=O)[C@H](C)NC(=O)c1nccc(OC)c1OC(C)=O [Example 269],,> 80,> 80,> 80,> 80,,> 80,,,B (≦80)
COc1ccnc(C(=O)N[C@@H](C)C(=O)O[C@@H](C)[C@H](Oc2ccccc2)c2cccc3ccccc23)c1OCOC(C)=O [Example 262],,> 80,> 80,> 80,> 80,,> 80,< 0,,
COc1ccnc(C(=O)N[C@@H](C)C(=O)O[C@@H](C)[C@H](Oc2cccc(F)c2)c2ccccc2)c1OC(C)=O [Example 188],,> 80,> 80,> 80,> 80,,> 80,< 80,,
COc1ccnc(C(=O)N[C@@H](C)C(=O)O[C@@H](C)[C@H](Oc2ccccc2)c2ccc(F)cc2OCC(F)F)c1OC(C)=O [Example 273],,> 80,> 80,> 80,> 80,,< 80,< 0,,
